According to US10717727B2, “Pyridinium compounds” (TORRENT PHARMACEUTICALS LIMITED, priority 2015, dated 2020):

System: Diabetic rats
Assay: In vivo study of effect on Nerve Conduction Velocity (NCV) in streptozotocin-induced diabetic rats
Conditions: 150 mg/kg, 8 weeks of treatment after 12 weeks of diabetes, streptozotocin diabetic male Wistar rats; compared with diabetic control rats treated with vehicle; ***p<0.001 by student's t-test (FIG. 1)
Method: Motor nerve conduction velocity evaluation was performed as a measure of AGE related diabetic complications.
In vivo study to evaluate effect of compound of present invention on Nerve Conduction Velocity
Healthy male Wistar rats, 170-250 g, 6-10 weeks old, were selected for the study. The animals were divided into two groups i.e. a non-diabetic control group (Normal Control Rats) and a diabetic group. Diabetes was induced (in the diabetic group of animals) by a single intraperitoneal injection of streptozotocin (60 mg/kg body weight) dissolved in citrate buffer (pH 4.5) (Biro et al; Brain Research Bulletin (1997) 44(3): 259-263). […]
150 mg/kg of Compound No 1 was administered to diabetic rats and diabetic control group was treated with vehicle for Compound 1. The rats were monitored throughout the experiment for water intake, food intake, changes in body weight, blood biochemistry parameters, urine parameters and mortality. […]
After 8 weeks of treatment NCV was estimated as described by Biro et al, (1997). […] Electromyograms (EMG's) from the plantar muscles were amplified and recorded using a data acquisition system (MacLab®, ADI instruments). […] Latency and the duration of the M responses were measured and the motor nerve conduction velocity (MNCV) was calculated. […]
Anode was placed in proximity to the cathode. Upon stimulation of the nerve, responses (EMG) were recorded from the plantar surface. […]

SMILES: CS(=O)(=O)NNC(=O)c1ccc[n+](CC(=O)c2cccs2)c1 [Compound 1]
- Nerve Conduction Velocity (NCV): improvement in NCV
